From article PMC12663132, “Assessment of cytotoxicity of some synthetic compounds against breast carcinoma spheroids with subsequent analysis of pro-apoptotic and gene expression” (Scientific Reports, 2025)
Where a name gives a salt, the structure may show the parent alone.

What was measured:
[1] = tested on: MCF7 3D spheroids; test: Cytotoxicity on MCF7 3D multicellular spheroids (acid phosphatase method); details: for cytotoxicity at 50 µM: MCF7, 120 h, read-out: Mean of % cytotoxicity ± S.D; for % inhibition 3D / Mean of % cytotoxicity ± S.D: MCF7 3D spheroids; for % inhibition 3D: 50 µM; for Mean of % cytotoxicity ± S.D: 50µM, 120 h
Experimental: (§1) Eighty pre-plated synthetic chemical compounds were screened on two human cell lines: MCF7 (ATCC® HTB-22™), a Caucasian breast adenocarcinoma model, and hTERT-RPE-1 (ATCC® CRL-4000™), a normal retinal epithelial cell line immortalized by hTERT telomerase. […] The cells were cultured in DMEM-F12 medium supplemented with L-glutamine and 10% fetal bovine serum, all were purchase from Biowest (Biotechnology company in Nuaillé, France), and maintained in a controlled incubator environment set at 37 °C with 5% CO2 and 95% humidity.
3-D spheroid models were generated from MCF7 cancer and hTERT-RPE1 normal cells were seeded at 10,000 and 50,000 cells/well, respectively, in poly-HEMA coated round bottom plates according to the protocol previously mentioned[44]. The cells were incubated for 5 days to generate the spheroids with diameter of 500 ± 20 µm. The spheroids were imaged using Olympus S100, U-CMAD3 camera connected to Olympus inverted microscope and the diameter of the spheroids was measured using Cellscen-Entry software. Test compounds were added in triplicate to a final concentration of 50 µM and were incubated for 120 h. […] At the end of incubation, cytotoxicity was determined using the acid phosphatase method[45]. After washing twice with 250 μL PBS buffer, 100 μL of 0.1 M sodium citrate, 0.1% Triton X-100, p-nitrophenylphosphate (2 mg/ml) (Pierce Biotechnology Inc., Rockford, IL) was added to each well and incubated for 1.5 h at 37 °C. After incubation, 10 μL of 1N NaOH stop solution was added to each well, and absorbance was read at 405 nm. Cytotoxicity was calculated according to the following equation:

[2] = tested on: MCF7; test: Cytotoxicity on MCF7 monolayers (MTT assay); details: for cytotoxicity at 50 µM: Homo sapiens, MCF7, 72 h, read-out: Mean of % cytotoxicity ± SD; for % inhibition 2D / Mean of % cytotoxicity ± SD: MCF7 monolayer; for % inhibition 2D: 50 µM; for Mean of % cytotoxicity ± SD: 50µM, 72 h, MTT
Experimental: as §1
MCF7 cells were seeded in flat-bottom 96-well plates with a concentration of 20,000 cells/well, and were left overnight. The compounds were tested at a final concentration of 50 µM. Doxorubicin was used as a positive control and 0.5% DMSO as a negative control. The treatment duration was 72 h. The cytotoxicity was then assessed using the MTT assay, as described by Mosmann[43].

| SMILES | cytotoxicity at 50 µM ([1]; Homo sapiens) [%] | cytotoxicity at 50 µM [2] [%] | other results |
| --- | --- | --- | --- |
| CC(=O)Nc1ccc(NC(=O)c2nccnc2C(=O)O)cn1 [C09, 3-({[6-(acetylamino)-3-pyridinyl]amino}carbonyl)-2-pyrazinecarboxylic acid] | -23.4 ± 0.5 | 9.9 ± 1.1 | inhibition at 50 µM ([1]; Homo sapiens, MCF7, read-out: % inhibition 3D): -23% |
| O=C(Nc1cc(-c2ccccc2)n[nH]1)C1COc2ccccc2O1 (centres unmarked) [A09, N2-(3-phenyl-1H-pyrazol-5-yl)-2,3-dihydro-1,4-benzodioxine-2-carboxamide] | 52.2 ± 1.9 | 100 ± 0.003 |  |
| O=C1C2CC=CCC2C(=O)N1c1cccc(N2C(=O)C3CC=CCC3C2=O)n1 (centres unmarked) [F04, 2-[6-(1,3-dioxo-2,3,3a,4,7,7a-hexahydro-1H-isoindol-2-yl)-2-pyridyl]-2,3,3a,4,7,7a-hexahydro-1H-isoindole-1,3-dione] | 29.8 ± 1.23 | 46.9 ± 2.6 |  |
| Cn1c(SCC(=O)NN2CC(=O)N(c3cccc(Cl)c3)CC2=O)nnc1-c1ccncc1 [G02, N-[4-(3-chlorophenyl)-2,5-dioxopiperazino]-2-{[4-methyl-5-(4-pyridinyl)-4H-1,2,4-triazol-3-yl]sulfanyl}acetamide] | -9.9 ± 0.8 | 0 |  |
| CC(C)(C)SCCNc1nc(Oc2ccc(F)cc2)nc(Oc2ccc(F)cc2)n1 [E03, N2-[2-(tert-butylthio)ethyl]-4,6-di(4-fluorophenoxy)-1,3,5-triazin-2-amine] | 41.8 ± 0.6 | 80.3 ± 1.5 |  |
| CC1(C)C=Cc2cc(C(N)=NOC(=O)c3cccc(C(F)(F)F)c3)ccc2O1 [E10, O6-[3-(trifluoromethyl)benzoyl]-2,2-dimethyl-2H-chromene-6-carbohydroximamide] | 67.5 ± 0.5 | 100 ± 0.003 |  |
| O=C(SCc1cccc(C(F)(F)F)c1)c1ccc(Cl)c(Cl)c1 [C10, S-[3-(trifluoromethyl)benzyl] 3,4-dichlorobenzene carbothioate] | 33.8 ± 1.6 | 100 ± 0.003 |  |
| O=C(O)c1nccnc1C(=O)Nc1ccccc1N1CCOCC1 [A08, 3-[(2-morpholinoanilino)carbonyl]-2-pyrazinecarboxylic acid] | 49.3 ± 0.53 | 17.2 ± 1 |  |
| COC(=O)c1sccc1S(=O)(=O)Nc1ccc(-c2cn3c(n2)SCC3)cc1 [G05] |  |  | % inhibition 3D [1]: 35.1%; Mean of % cytotoxicity ± S.D [1]: 35.1 ± 0.6%; % inhibition 2D [2]: 65.7%; Mean of % cytotoxicity ± SD [2]: 65.7 ± 1.0% |
| O=C1NC(=O)C(=Cc2ccncc2)C(=O)N1 [B09, 5-(4-pyridylmethylidene)hexahydropyrimidine-2,4,6-trione] | 59.2 ± 1.2 | 12.3 ± 0.7 |  |
| O=[N+]([O-])c1ccc2nc(-c3ccccc3)c(-c3ccccc3)nc2c1 [D02, 6-nitro-2,3-diphenylquinoxaline] | -8 ± 0.003 | 5.2 ± 0.18 |  |
| Clc1ccc(CSc2ncnc3c2sc2nnc(-c4ccccc4)c(-c4ccccc4)c23)cc1 [A11, 8-[(4-chlorobenzyl)sulfanyl]-3,4-diphenylpyrimido [4',5':4,5]thieno[2,3-c]pyridazine] | 46.4 ± 1.3 | 44.2 ± 1.6 |  |
| CCOC(=O)N1CCC(=NNc2ccc([N+](=O)[O-])cc2[N+](=O)[O-])CC1 [H10, ethyl 4-[2-(2,4-dinitrophenyl)hydrazono]piperidine-1-carboxylate] | 60.6 ± 1.1 | 27.5 ± 1.4 |  |
| O=C(Nc1ccc2c(c1)COCO2)c1cc2ccccc2oc1=O [H04, N3-(4H-1,3-benzodioxin-6-yl)-2-oxo-2H-chromene-3-carboxamide] | 28 ± 0.6 | 46 ± 0.8 |  |
| CCCc1cc(=O)oc2cc(OC(C)C(=O)NNS(=O)(=O)c3cccc(C(F)(F)F)c3)ccc12 (centres unmarked) [D11, N'1-{2-[(2-oxo-4-propyl-2H-chromen-7-yl)oxy]propanoyl}-3-(trifluoromethyl)benzene-1-sulfonohydrazide] | 40.6 ± 0.11 | 35.5 ± 0.35 |  |
| CC(=O)c1ccccc1OC(=O)c1ccc([N+](=O)[O-])o1 [C08, 2-acetylphenyl 5-nitro-2-furoate] | 30.8 ± 1.3 | 66.3 ± 4.3 |  |
| O=C(NNC1=Nc2ccccc2SC1)c1ccc(F)cc1 [G06, N'-(2H-1,4-benzothiazin-3-yl)-4-fluorobenzohydrazide] | 52.3 ± 2.3 | 93.4 ± 1.6 |  |
| CC(C)N1CC(COc2ccc(Br)cc2)OC1=O (centres unmarked) [H08, 5-[(4-bromophenoxy)methyl]-3-isopropyl-1,3-oxazolan-2-one] | 49 ± 1.4 | 18 ± 2.23 |  |
| Cc1ncc(CO)c(C=NO)c1O [B04, 3-hydroxy-5-(hydroxymethyl)-2-methylisonicotinaldehyde oxime] | 49.3 ± 0.35 | -58.5 ± 0.003 |  |
| C(=Cc1ccco1)C1=NN(Cc2ccccc2)CC1 [C05, 1-benzyl-3-[2-(2-furyl)vinyl]-4,5-dihydro-1H-pyrazole hydrochloride] | 48.6 ± 2 | 62.9 ± 3.8 |  |
| N#CC1(c2ccccc2)N=C2C=CC=CN2N=C1c1ccccc1 (centres unmarked) [E06, 2,3-diphenyl-2H-pyrido[1,2-b][1,2,4]triazine-2-carbonitrile] | 55 ± 1.6 | 26.7 ± 1.18 |  |

| SMILES | cytotoxicity at 50 µM ([1]; Homo sapiens) [%] | cytotoxicity at 50 µM [2] [%] | other results |
| --- | --- | --- | --- |
| NC(=NOC(=O)Nc1ccc(OC(F)(F)F)cc1)c1cnccn1 [E08, N'-({[4-(trifluoromethoxy)anilino]carbonyl}oxy) pyrazine-2-carboximidamide] |  |  | % inhibition 3D [1]: 40.2%; Mean of % cytotoxicity ± S.D [1]: 40.2 ± 3.8%; % inhibition 2D [2]: 84.1%; Mean of % cytotoxicity ± SD [2]: 84.1 ± 1.6% |
| CCCS(=O)(=O)c1cscc1NC(=O)c1c(-c2c(F)cccc2Cl)noc1C [A10, N4-[4-(propylsulfonyl)-3-thienyl]-3-(2-chloro-6-fluorophenyl)-5-methylisoxazole-4-carboxamide] | 68.6 ± 1.1 | 53.8 ± 4.9 |  |
| O=C1C(=C2NC(c3ccccn3)C3C(=O)N(c4ccc(OC(F)(F)F)cc4)C(=O)C23)C(=O)c2ccccc21 (centres unmarked) [F10, 4-(1,3-dioxo-2,3-dihydro-1H-inden-2-yliden)-6-(2-pyridyl)-2-[4-(trifluoromethoxy)phenyl]perhydropyrrolo [3,4-c]pyrrole-1,3-dione] | 60.3 ± 1.1 | 100 ± 0.003 |  |
| Cn1ccnc1SCC(=O)Nc1ccc(C(C)(C)C)cc1 [C04, N1-[4-(tert-butyl)phenyl]-2-[(1-methyl-1H-imidazol-2-yl)thio]acetamide] | 28.6 ± 0.76 | 14.5 ± 0.58 |  |
| CC(=O)Cc1nsc(Nc2ccccc2)n1 [B06, 1-(5-anilino-1,2,4-thiadiazol-3-yl)acetone] | 20.4 ± 0.35 | 14.8 ± 2.6 |  |
| COC(=O)C(C#N)=Cc1cccn1-c1ccc(C(F)(F)F)cc1 [B05, methyl 2-cyano-3-{1-[4-(trifluoromethyl)phenyl]-1H-pyrrol-2-yl}acrylate] | 42.1 ± 1.9 | 91.3 ± 0.6 |  |
| Cc1c(C)c(C)c2[nH]c(-c3ccc4c(c3)OCO4)nc2c1C [D04, 2-(1,3-benzodioxol-5-yl)-4,5,6,7-tetramethyl-1H-benzimidazole] | 67.9 ± 0.5 | 100 ± 0.003 |  |
| CC(=O)Nc1ccc(C=C(C#N)C(N)=O)cc1 [G11, 3-[4-(acetylamino)phenyl]-2-cyanoacrylamide] | 60.8 ± 1.23 | 15.6 ± 1.7 |  |
| NS(=O)(=O)c1cccc(NC(=O)Nc2ccccc2)c1 [F11, 3-[(anilinocarbonyl)amino]benzenesulfonamide] | 60.4 ± 0.77 | 0 |  |
| NS(=O)(=O)c1ccc(NNC(=O)c2cccs2)cc1 [E07, 4-[2-(2-thienylcarbonyl)hydrazino]benzenesulfonamide] | 36.2 ± 0.35 | 0 |  |
| CCOC(=O)c1cnn(C(=O)c2snnc2C)c1N [A05, Ethyl 5-amino-1-[(4-methyl-1,2,3-thiadiazol-5-yl)carbonyl]-1H-pyrazole-4-carboxylate] | 49 ± 0.8 | 62.3 ± 2.5 |  |
| ON=Cc1ccc(-c2ccccc2OC(F)(F)F)o1 [G10, 5-[2-(trifluoromethoxy)phenyl]-2-furaldehyde oxime] | 54.4 ± 1.2 | 100 ± 0.003 |  |
| Cc1nn(-c2ccccc2)nc1C(=O)Nc1cc(Cl)cc(Cl)c1 [A03, N4-(3,5-dichlorophenyl)-5-methyl-2-phenyl-2H-1,2,3-triazole-4-carboxamide] | 39.1 ± 0.24 | 94.2 ± 0.65 |  |
| NS(=O)(=O)c1cccc(NC(=O)c2cccnc2Oc2ccccc2)c1 [G07, N-[3-(aminosulfonyl)phenyl]-2-phenoxynicotinamide] | 35.1 ± 0.77 | 0 |  |
| Nc1ccc(-c2ccc(N)c([N+](=O)[O-])c2)cc1[N+](=O)[O-] [A06, 3,3'-dinitro[1,1'-biphenyl]-4,4'-diamine] | 60.8 ± 1 | 82.4 ± 0.41 |  |
| OC(CSc1ccccc1)CN1CCN(c2nccc(C(F)(F)F)n2)CC1 (centres unmarked) [F08, 1-(phenylthio)-3-{4-[4-(trifluoromethyl)pyrimidin-2-yl]piperazino}propan-2-ol] | 61.6 ± 0.8 | 100 ± 0.003 |  |
| COc1ccc(Cl)cc1NC(=O)Nc1ccc(N2CCCCC2)cc1 [E09, N-(5-chloro-2-methoxyphenyl)-N'-(4-piperidinophenyl) urea] | 50.7 ± 0.52 | 28.3 ± 0.9 |  |
| c1cc2c(cc1N=C1SCC3CCCCN13)OCO2 (centres unmarked) [B08, N-hexahydro[1,3]thiazolo[3,4-a]pyridin-3-ylidene-1,3-benzodioxol-5-amine] | 53.1 ± 0.6 | 8.5 ± 0.47 |  |
| CCOC(=O)c1ccc(-n2c(=S)[nH]c3ccccc32)cc1 [B02, ethyl 4-(2-thioxo-2,3-dihydro-1H-benzimidazol-1-yl)benzoate] | 35.7 ± 1.8 | 100 ± 0.003 |  |
| COc1cccc2c1C(=O)c1c(O)c3c(c(O)c1C2=O)C[C@@](O)(C(=O)CO)C[C@@H]3O[C@H]1C[C@H](N)[C@H](O)[C@H](C)O1 [doxorubicin, reference compound] |  | 57.6 ± 2.1 |  |
